Reference: patent publication US20080287398A1, “COLD MENTHOL RECEPTOR-1 ANTAGONISTS” (priority 2007, published 2008)
Several values for one entry are separate records, joined by “and”; a condition that tells them apart may be missing. Equal values may be shown once. Read-outs that look alike come from different tables or passages of the source.

How the values were obtained:
[1] = target: T1, canine TRPM8 (Canis lupus familiaris, UniProt Q1A7N1); assay: In vitro canine TRPM8 functional assay (Ca2+-sensitive dye, FLIPR/FDSS, icilin activation); format: cell-based; conditions: HEK293 cells expressing canine TRPM8, icilin activation; for % I (0.5 μM): 0.5 μM compound; for IC50: eight-point dose-response; for inhibition at 0.5 µM: HEK293, read-out: % I (0.5 μM), 0.5 μM compound; for % I (1 μM): 1 μM compound
T1 construct: expressed in transfected cells
Outline: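 Icilin challenge (final concentration producing ~80% of maximal response) followed a 5 min compound exposure in canine TRPM8-HEK293 cells dye-loaded with Calcium 3. Intracellular Ca2+ was read on FLIPR/FDSS. EC50 and IC50 values came from nonlinear sigmoidal dose-response fits of basal-subtracted, percent-of-maximum data averaged over quadruplicates.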

[2] = test system: Sprague-Dawley rats; assay: CFA-induced paw radiant heat hypersensitivity; format: in vivo, rat; conditions: for % Reversal: rat, 30 mg/kg p.o.; for inhibition in vivo at 30 mg/kg / ED50: Rattus norvegicus; for inhibition in vivo at 30 mg/kg: read-out: % Reversal
Experimental: Intraplantar injection of Complete Freund's Adjuvant (CFA) in rodents results in a long-lasting inflammatory reaction, characterized by a pronounced hypersensitivity to both thermal and mechanical stimuli. This hypersensitivity peaks between 24-72 hours following injection and can last for several weeks. […] This paradigm also may be conducted with a multiple dosing or a prophylactic dosing regime designed to alter the course of hyperalgesia development. This test predicts the analgesic, anti-allodynic and antihyperalgesic effect of numerous effective clinical agents, including NSAIDS such as acetaminophen, aspirin and ibuprofen, and opioids such as morphine.
Each rat was placed in a test chamber on a warm glass surface and allowed to acclimate for approximately 10 minutes. A radiant thermal stimulus (beam of light) was then focused through the glass onto the plantar surface of each hind paw in turn. The thermal stimulus was automatically shut off by a photoelectric relay when the paw was moved or when the cut-off time was reached (20 seconds for radiant heat at ˜5 Amps). An initial (baseline) response latency to the thermal stimulus was recorded for each animal prior to the injection of CFA. Twenty-four hours following intraplantar CFA injection, the response latency of the animal to the thermal stimulus was then re-evaluated and compared to the animal's baseline response time. […] Immediately following the post-CFA latency assessment, test compound or vehicle (usually Solutol, hydroxypropyl methylcellulose, hydroxypropyl beta-cyclodextrin or PEG-400) was administered i.p. or p.o. to rats. […] The percent reversal (% R) of hypersenstivitiy was calculated according to the following formula:
% Reversal=(Treatment Response-CFA Response)/(Baseline Response-CFA Response)×100.

[3] = target: T1, canine TRPM8; assay: TRPM8 patch clamp assay (whole-cell, HEK293 cells); format: cell-based; conditions: HEK293 cells stably transfected with canine TRPM8, 100 μM menthol, 22° C.
Experimental: For patch clamp experiments, HEK293 cells stably transfected with canine TRPM8 were cultured in DMEM supplemented with 10% fetal bovine serum, 100 units/ml penicillin, 100 μg/ml streptomycin and 1 mg/ml G418. Cells were maintained at 37° C. and in 5% CO2.
The extracellular solution contained (in mM): NaCl, 132; EGTA, 1; KCl, 5.4; MgCl2, 0.8; HEPES, 10; glucose, 10; pH=7.4. Recordings were performed using the conventional whole-cell patch clamp technique, 1-2 days after plating cells onto glass coverslips at densities appropriate for single cell recording. Currents were amplified by a patch clamp amplifier and filtered at 2 kHz (Axopatch 200B, Molecular Devices, Union City, Calif.). Menthol (100 μM) was applied to the cell at 0.5 ml/min via a gravity-fed perfusion system. Recordings involving menthol activation were performed at 22° C.
In experiments where temperatures were varied, temperature ramps were generated by cooling the perfusate in an in-line cooler (Model SC-20, Warner Instruments, Hamden, Conn.) controlled by a temperature controller (Model CL-100, Warner Instruments). The temperature in the vicinity of the recorded cell was measured with a custom-made miniature thermo-microprobe connected to a monitoring thermometer (Model TH-8, Physitemp, Clifton, N.J.), and sampled using Digidata 1322A and pClamp 9.0 (Molecular Devices), as were the currents concurrently measured in the whole-cell patch clamp mode. The current was continuously sampled (at 100 Hz) at a holding potential of −60 mV.
Compounds were diluted from 10 mM DMSO stocks (stored at −20° C.) into an extracellular solution either containing 100 μM menthol or subjecting to cooling. Increasing concentrations of a compound were applied to a cell in a cumulative manner and concentration-dependent responses were measured after steady-state activation was achieved by either 100 μM menthol or cooling to 10° C. A saturating concentration of a reference antagonist was applied at the end of an experiment (either in the presence of 100 μM menthol or 10° C. temperature) to establish the baseline from which all the other measurements were subtracted.
Percentage inhibition by a compound was calculated as follows: 100×(1−Icomp/I0); where Icomp and I0 are steady-state current amplitudes in either the presence or absence of a concentration of the compound.

[4] = HEK293, read-out: % I (1 μM), 1 μM compound

T1 sequence (Q1A7N1 1-1104): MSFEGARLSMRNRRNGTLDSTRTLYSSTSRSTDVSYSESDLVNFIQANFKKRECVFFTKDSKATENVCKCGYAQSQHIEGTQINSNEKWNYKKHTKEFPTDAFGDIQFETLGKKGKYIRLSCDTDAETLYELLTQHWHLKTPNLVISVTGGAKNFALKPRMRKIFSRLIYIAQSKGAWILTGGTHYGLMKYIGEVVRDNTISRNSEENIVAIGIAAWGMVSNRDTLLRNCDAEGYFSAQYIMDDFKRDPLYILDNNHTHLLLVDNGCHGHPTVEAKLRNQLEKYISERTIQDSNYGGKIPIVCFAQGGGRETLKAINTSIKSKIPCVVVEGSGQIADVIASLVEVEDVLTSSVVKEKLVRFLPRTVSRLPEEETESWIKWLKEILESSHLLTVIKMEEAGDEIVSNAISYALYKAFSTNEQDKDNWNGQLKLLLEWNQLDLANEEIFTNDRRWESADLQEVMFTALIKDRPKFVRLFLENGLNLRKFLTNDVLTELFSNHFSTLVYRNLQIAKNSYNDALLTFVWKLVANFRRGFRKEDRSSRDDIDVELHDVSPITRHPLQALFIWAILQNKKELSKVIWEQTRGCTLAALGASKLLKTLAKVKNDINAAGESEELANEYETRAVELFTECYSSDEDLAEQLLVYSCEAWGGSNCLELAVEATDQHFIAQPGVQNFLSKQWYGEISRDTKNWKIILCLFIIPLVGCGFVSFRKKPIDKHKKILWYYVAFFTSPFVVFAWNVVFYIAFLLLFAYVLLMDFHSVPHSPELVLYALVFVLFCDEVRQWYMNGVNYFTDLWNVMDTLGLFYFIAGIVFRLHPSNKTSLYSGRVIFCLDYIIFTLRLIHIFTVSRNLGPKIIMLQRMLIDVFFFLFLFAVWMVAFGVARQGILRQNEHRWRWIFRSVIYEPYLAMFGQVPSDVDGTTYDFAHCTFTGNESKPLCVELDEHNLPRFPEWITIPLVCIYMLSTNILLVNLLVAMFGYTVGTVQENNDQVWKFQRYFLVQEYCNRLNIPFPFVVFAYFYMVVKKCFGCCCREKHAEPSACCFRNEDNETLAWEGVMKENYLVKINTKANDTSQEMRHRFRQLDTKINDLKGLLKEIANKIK

Structure (SMILES)	% I (0.5 μM) [1]	IC50 ([1]; read-out: IC50)	further results
CCOP(=O)(OCC)C(Cc1ccc(SC)cc1)c1sc2ccccc2c1Cl (racemic) [Cpd 299]	101%	0.141 µM	% Reversal ([2]; time 1 h): 23%
CCOP(=O)(OCC)C(Cc1ccc(OC(F)(F)F)cc1)c1sc2ccccc2c1Br (stereo not shown) [Cpd 155, [1-(3-Bromo-benzo[b]thiophen-2-yl)-2-(4-trifluoromethoxy-phenyl)-ethyl]-phosphonic acid diethyl ester]			inhibition at 0.5 µM [1]: 104%; IC50 ([1]; IC50 (μM)): 0.046 µM and 0.12 µM and 0.09 µM; IC50 [3]: 12.5 nM; inhibition in vivo at 30 mg/kg ([2]; po, 1 h): 138%
CC(C)OP(=O)(OC(C)C)C(Cc1ccc(Cl)c(F)c1)c1sc2ccccc2c1Br (stereo not shown) [Cpd 190]	104%	0.102 µM	% Reversal ([2]; time 1 h): 45%
CCOP(=O)(OCC)C(Cc1ccc(F)c(F)c1)c1sc2ccccc2c1Br (stereo not shown) [Cpd 127, [1-(3-Bromo-benzo[b]thiophen-2-yl)-2-(3,4-difluoro-phenyl)-ethyl]-phosphonic acid dethyl ester]			inhibition at 1 µM [1, 4]: 100%; IC50 ([1]; IC50 (μM)): 0.052 µM; ED50 ([2]; po): 5.2 mg/kg; inhibition in vivo at 30 mg/kg ([2]; po, 1 h): 88%; ED50 ([2]; po, 1 h, read-out: oral ED50): 5.2 mg/kg
CC(C)OP(=O)(OC(C)C)C(Cc1ccc(C(F)(F)F)cc1)c1sc2ccccc2c1Br (stereo not shown) [Cpd 336]	102%	0.043 µM	% Reversal ([2]; time 1 h): 64%
CC(C)OP(=O)(OC(C)C)C(Cc1cc(C(F)(F)F)ccc1F)c1sc2ccccc2c1Br (stereo not shown) [Cpd 335]	102%	0.035 µM	% Reversal ([2]; time 1 h): 0%
CC(C)OP(=O)(OC(C)C)C(Cc1ccc(F)c(F)c1)c1sc2ccccc2c1Cl (stereo not shown) [Cpd 12, [1-(3-Chloro-benzo[b]thiophen-2-yl)-2-(3,4-difluoro-phenyl)-ethyl]-phosphonic acid diisopropyl ester]			inhibition at 1 µM [1, 4]: 100%; IC50 ([1]; IC50 (μM)): 0.043 µM and 0.13 µM; inhibition in vivo at 30 mg/kg ([2]; ip, 1 h): 105%
CCOP(=O)(OCC)C(Cc1ccc(F)c(Cl)c1)c1sc2ccccc2c1Br (racemic) [Cpd 244]	103%	0.028 µM	% Reversal ([2]; time 2 h (printed 2 h or 2)): 45%
CCOP(=O)(OCC)C(Cc1ccc(F)c(C(F)(F)F)c1)c1sc2ccccc2c1Cl (racemic) [Cpd 298]	99%	0.085 µM	% Reversal ([2]; time 1 h): 20%
CCOP(=O)(OCC)C(Cc1ccc(F)c(F)c1)c1sc2cc(OC)ccc2c1C (stereo not shown) [Cpd 82, [2-(3,4-Difluoro-phenyl)-1-[6-methoxy-3-methyl-benzo[b]thiophene-2-yl)-ethyl]-phosphonic acid diethyl ester]			inhibition at 1 µM [1, 4]: 87%; IC50 ([1]; IC50 (μM)): 0.44 µM
CC(C)OP(=O)(OC(C)C)C(Cc1ccc(F)c(F)c1)c1oc2ccccc2c1Br (stereo not shown) [Cpd 124]		0.049 µM	% I (1 μM) [1]: 103%
CC(C)CCOP(=O)(OCCC(C)C)C(Cc1ccc(F)c(F)c1)c1sc2ccccc2c1Br (racemic) [Cpd 211]	97%	0.095 µM	
CC(C)OP(=O)(OC(C)C)C(Cc1ccc(F)c(F)c1)c1nc2ccccc2s1 (stereo not shown) [Cpd 25, [1-Benzothiazol-2-yl-2-(3,4-difluoro-phenyl)-ethyl]-phosphonic acid diisopropyl ester]		0.12 µM and 0.19 µM	inhibition at 1 µM ([1]; HEK293, 1 μM compound, read-out: % I (1 μM)): 101%
CCOP(=O)(OCC)C(Cc1ccc(F)c(C(F)(F)F)c1)c1sc2ccccc2c1Cl (racemic) [Cpd 294]	103%	0.118 µM	
CCOP(=O)(OCC)C(Cc1ccc(OC(F)F)cc1)c1sc2ccccc2c1Br (stereo not shown) [Cpd 311]	102%	0.053 µM	
CSc1ccc(CC(c2sc3ccccc3c2Cl)P(=O)(OC(C)C)OC(C)C)cc1 (stereo not shown) [Cpd 256]	103%	0.056 µM	
CCOP(=O)(OCC)C(Cc1cccc(C(=O)OC)c1)c1sc2ccccc2c1Br (stereo not shown) [Cpd 313]	102%	0.083 µM	
CC(C)OP(=O)(OC(C)C)C(Cc1cccc(F)c1)c1sc2ccccc2c1Br (stereo not shown) [Cpd 192]		0.038 µM	% I (1 μM) [1]: 103%

Structure (SMILES)	% I (0.5 μM) [1]	IC50 ([1]; read-out: IC50)	further results
CC(C)OP(=O)(OC(C)C)C(Cc1ccc(F)cc1)c1sc2ccccc2c1Br (stereo not shown) [Cpd 197]	102%		% I (1 μM) [1]: 100%; % Reversal ([2]; time 2 h (printed 2 h or 2)): 23%
CC(C)OP(=O)(OC(C)C)C(Cc1cccc(F)c1F)c1sc2ccccc2c1Br (stereo not shown) [Cpd 194]		0.041 µM	% I (1 μM) [1]: 103%
CCOP(=O)(OCC)C(Cc1cccc(Cl)c1Cl)c1sc2ccccc2c1C (stereo not shown) [Cpd 35]		0.125 µM	% I (1 μM) [1]: 100%
CCOP(=O)(OCC)C(Cc1ccccc1O)c1sc2ccccc2c1Br (stereo not shown) [Cpd 323]	104%	0.009 µM	
CCOP(=O)(OCC)C(Cc1ccc(OC(F)(F)F)cc1)c1sc2ccccc2c1Cl (stereo not shown) [Cpd 277]	103%	0.116 µM	
CCCS(=O)(=O)n1c(C(Cc2ccc(F)c(C(F)(F)F)c2)P(=O)(OC(C)C)OC(C)C)c(Br)c2ccccc21 (stereo not shown) [Cpd 332]	72%		
CC(C)OP(=O)(OC(C)C)C(Cc1cccc(SC(F)(F)F)c1)c1sc2ccccc2c1Cl (stereo not shown) [Cpd 255]	103%	0.058 µM	
CCOP(=O)(OCC)C(Cc1cccc(Br)c1)c1sc2ccccc2c1Br (racemic) [Cpd 295]	102% and 103%	0.031 µM and 0.016 µM	
CCOP(=O)(OCC)C(Cc1ccc(SC(F)(F)F)cc1)c1sc2ccccc2c1Cl (racemic) [Cpd 283]	103%	0.125 µM	
CCOP(=O)(OCC)C(Cc1cc(C(F)(F)F)cc(C(F)(F)F)c1)c1sc2ccccc2c1Cl (racemic) [Cpd 282]	100%	0.235 µM	
CC(C)OP(=O)(OC(C)C)C(Cc1cccc(F)c1F)c1cc2ccccc2s1 (stereo not shown) [Cpd 122]		0.35 µM	% I (1 μM) [1]: 102%
CCOP(=O)(OCC)C(Cc1cccc(C(F)(F)F)c1)c1cc2ccccc2s1 (stereo not shown) [Cpd 39]		0.141 µM	% I (1 μM) [1]: 100%
CCOP(=O)(OCC)C(Cc1cc(C(F)(F)F)ccc1C(F)(F)F)c1sc2ccccc2c1C (stereo not shown) [Cpd 113]			% I (1 μM) [1]: 25%
CC(C)OP(=O)(OC(C)C)C(Cc1cc(C(F)(F)F)cc(Cl)c1F)c1cc2ccccc2s1 (stereo not shown) [Cpd 126]		0.41 µM	% I (1 μM) [1]: 100%
CCOP(=O)(OCC)C(Cc1cccc(Cl)c1)c1sc2ccccc2c1Br (stereo not shown) [Cpd 137, [1-(3-Bromo-benzo[b]thiophene-2-yl)2-(3-chloro-phenyl)-ethyl]-phosphonic acid diethyl ester]			inhibition at 0.5 µM [1]: 102%; IC50 ([1]; IC50 (μM)): 0.024 µM; inhibition in vivo at 30 mg/kg ([2]; po, 1 h): 34%
CCOP(=O)(OCC)C(Cc1cc(C(F)(F)F)ccc1Cl)c1sc2ccccc2c1Br (racemic) [Cpd 148]	103%	0.172 µM	
CCOP(=O)(OCC)C(Cc1c(Cl)ccc(C)c1F)c1sc2ccccc2c1C (stereo not shown) [Cpd 60]		0.28 µM	% I (1 μM) [1]: 100%
